Twelve compounds from patent publication US7910579B2, “Benzoxazole derivatives” (Tohoku University, priority 2006, dated 2011) can be followed below.

Data set [1] deals with histidine-requiring Salmonella typhimurium TA100 and TA98 strains. Description: Mutagenicity Test (reverse mutation test). It is filed as cell-based. Particulars: for Relative activity (mutagenicity): irrespective of the absence or presence of S9mix; for Relative Activity in the presence of S9Mix / Relative Activity in the absence of S9Mix: reverse mutation test. The protocol: In view of their use, it is desirable that the compounds of the invention have no mutagenicity or have little mutagenicity to a level causing no problem. For investigating the gene mutagenesis of the compounds of the invention, herein carried out was a reverse mutation test with histidine-requiring Salmonella typhimurium TA100 and TA98 strains. Two tests were carried out. One is a test for dose determination test; and the other is for mutagenicity.
The test methods and the mutagenicity of the compounds of the invention are mentioned below. In the dose determination test, six doses of 0.160, 0.800, 4.00, 20.0, 100 and 500 μg/plate (common ratio 5) were tried.
As a result of the dose determination test, when the mutagenicity of the test compound was admitted, then the actual test for mutagenicity was carried out, using the dose capable of giving an accurate dose-reaction curve. When no mutagenicity of the test compound was admitted in the dose determination test and when the growth inhibition of the test cells was admitted therein, then the dose to present the growth inhibition was taken as the maximum dose; and when the growth inhibition was not admitted, then a dose of 5000 μg/plate was taken as the maximum dose. With that, the actual test for mutagenicity was carried out on the level of 6 doses (common ratio 2).
First, a test compound was dissolved or suspended in DMSO, then diluted in order to prepare test compound liquids having a varying concentration.
100 μl of a test compound liquid or a negative control (DMSO) solution was put into a sterilized test tube. Then, for the case in the absence of a metabolic activation system (−S9mix), 500 μl of 0.1 mol/liter sodium-phosphate buffer (pH 7.4) was added to it; and for the case in the presence of a metabolic activation system (+S9mix), 500 μl of S9mix was added to it.
Next, 100 μl of the test strain suspension that had been cultivated with shaking at 37° C. for 8 hours was added to it, and preincubated in a shaking thermostat at 37° C. for 20 minutes. After shaken, 2 ml of top agar was added to it, and the contents were mixed.
Next, the mixture was poured onto a minimal glucose agar plate medium (plate) and spread uniformly thereon, then the top agar was solidified, and the plate was transferred into a thermostat and incubated at 37° C. for 48 hours.
Then, the number of the colonies grown through reverse mutation was counted.
For counting it, […]. After area correction and miss-counting correction, the number of the colonies was computed. When the colony analyzer could not be used owing to the deposition of the test compound or the cell growth inhibition, then the number of the colonies was counted with the naked eye.
In case where the number of the colonies through reverse mutation increased two times or more that of the negative control and where the dose dependency or the reproducibility of the increase was admitted, then the tested sample was decided as positive. When the sample was is decided as positive, then the relative activity that indicates the relative comparative value of the intensity of the mutagenicity of the test compound was obtained according to the following formula: Relative Activity={(number of colonies per plate having the concentration)−(number of colonies per negative control plate)}/the value of concentration (mg/plate).

Data set [2] addresses T1, amyloid β protein in the brain section of an Alzheimer disease patient (Homo sapiens, UniProt P05067).
T1 construct: from tissue; host or cells: paraffin-embedded temporal lobe and hippocampus of Alzheimer disease patients
Briefly: Staining test on a brain section of an Alzheimer disease patient: amyloid β protein. It is filed as binding. Particulars: for Binding to (staining of) amyloid β protein in the brain section of an Alzheimer disease patient: 100 μM solution in 50% ethanol, 10 minutes, paraffin brain section; for Specificity to amyloid β: statement in the description of formulae (II) to (VI). From the text:
(1) Brain specimens at the temporal lobe and the hippocampus of patients to which a definitive diagnosis of Alzheimer disease had been given, and those of normal senile persons were used. The specimens were given by our coworker, Fukushimura Hospital, Longevity Medicine Institute, and we were given their consent of use of the specimens for our study purpose by the bereaved of the patients (Fukushimura Hospital Ethical Review Board Approval No. 20).
(2) The paraffin-embedded brain tissue was cut Into slices having a thickness of 6 μm or 8 μm, and extended and dried on a slide. The paraffin brain section was steeped for paraffin removal in xylene twice for 10 minutes, 100% ethanol twice for 5 minutes, 90% ethanol for 5 minutes and running water for 10 minutes in that order.
(3) For pretreatment prior to the staining treatment with a compound of the invention, the sections were steeped for autofluorescence removal with lipofuscin. First, the paraffin-removed sections were dipped in 0.25% KMnO4 solution for 20 minutes. These were washed with PBS, twice for 2 minutes, then dipped in 0.1% K2S2O5/oxalic acid solution for about 5 seconds, and then further washed with PBS, three times for 2 minutes.
(4) About 150 μl of a 100 μM solution of a compound of the invention dissolved in 50% ethanol was dropwise applied to the section and reacted for 10 minutes. After dipped five times in tap water, the section was entrapped with Fluor Save Reagent (Calbiochem), and analyzed through microscopy with a fluorescence microscope (Nikon, Eclipse 80i). The images were taken with a digital camera (Nikon Dxm 1200F or Photometrics' Cool SNAP ES).
(1) After paraffin removal, the sections were washed in distilled water, twice for 2 minutes. Then, using ImmunoPen, the tissue was marked with a surrounding line; about 150 μl of formic acid was dropwise applied to the section and statically left at room temperature for 5 minutes. The section was washed with tap water for 5 minutes, then dipped in cold PBS-Tween 20 for 2 minutes, and thereafter about 150 μl of 0.05% trypsin solution was dropwise applied to it and reacted at 37° C. for 15 minutes.
(2) In an ice bath, this was washed with cold PBS-Tween 20, twice for 5 minutes, and then 2 drops of blocking serum were applied to it and reacted at 37° C. for 30 minutes. Excess water was removed, and then about 150 μl of a specific antibody to amyloid β protein, 6F/3D (by DAKO, 1/50 dilution) was dropwise applied to it, and reacted at 37° C. for 1 hour.
(3) Further, this was washed with cold PBS-Tween 20, 5 times for 2 minutes, and then 2 drops of an anti-mouse IgG (H+L), goat, biotin-binding solution were applied to it and reacted at 37° C. for 1 hour. Then, this was washed with cold PBS-Tween 20, three times for 2 minutes, and 2 drops of an ABC solution (streptoavidin-biotin-peroxidase composite solution) were applied to it, and left statically as such for 30 minutes. Again this was washed with cold PBS-Tween 20, three times for 2 minutes, and then about 150 μl of a DAB solution (10 mg of DAB was dissolved in 20 ml of 0.05 mol/liter tris-HCl buffer, and just before use, 100 μl of 3% hydrogen peroxide water was added to it) was dropwise applied to it for sufficiently staining it. Then, this was washed with distilled water for 1 minute to stop the reaction, then entrapped and observed through microscopy.

For the next data set, the target named is T2, Amyloid β protein 1-40 (Homo sapiens, UniProt P05067).
T2 construct: Amyloid β protein 1-40 (bought from Peptide Laboratory); purchased Peptide Laboratory
T2 sequence (P05067 672-711): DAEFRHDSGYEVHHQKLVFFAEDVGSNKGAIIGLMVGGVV
Description: Fluorescence Congo Red Method. It is filed as binding. The following applies: compound 10 μM, amyloid β protein 5 μM; for activity at 10 µM: 1 h. Here is the method:
Next described is a screening method for the compounds of the invention. Some of the compounds of the invention could not be screened according to a Thioflavin T method, since their fluorescence wavelength overlaps with that of Thioflavin T. For such compounds, the following novel screening method was introduced. (1) Amyloid β protein 1-40 (bought from Peptide Laboratory) was dissolved in a phosphate buffer (pH 7.4) and left at 37° C. for 4 days. (2) 50 μl of Congo red dissolved in the buffer was applied to a 96-well microplate (final concentration, 0.1, 0.3, 1 μM). (3) 100 μl of amyloid β protein was added to it (final concentration 5 μM), and left as such for 30 minutes. (4) 100 μl of a test compound dissolved in the buffer was added to it (final concentration, 10 μM, and left as such for 60 minutes. (5) Using a fluorescence microplate reader (Spectra Max 190 by Molecular Device), the sample was analyzed at the optimum exciting wavelength and the test wavelength that had been previously determined. (6) The fluorescence intensity in the presence of the test compound, amyloid β protein and Congo red is represented by A; that in the presence of the test compound and Congo red is by B; that in the presence of the test compound and amyloid β protein is by C; and that in the presence of only the test compound is by D. The β structure recognition of the test compound is computed according to the following formula: β structure recognition (%) of test compound={(A−B)/(C−D)}×100. (7) It may be said that the test compound having a higher β structure recognition percentage may have higher binding specificity to amyloid β protein.

Where two headings read alike, the source gives them in different places.

T1 sequence (P05067 672-713 limits assumed): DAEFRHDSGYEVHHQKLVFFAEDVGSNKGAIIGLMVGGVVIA

With `N#CC(C#N)=Cc1ncc(/C=C/c2nc3ccc(OCC(CO)CF)cc3o2)s1` (stereo not shown) [THK-683, (E)-2-[2-(2,2-dicyano-ethenylthiazol-5-yl)ethenyl]-6-[(2-fluoromethyl-3-hydoxy)propoxy]benzoxazole], in data set [1], the “Relative activity (mutagenicity)” value is listed as “minus”, the “Relative Activity in the presence of S9Mix” value is on record as “minus” and the “Relative Activity in the absence of S9Mix” value is reported as “minus”.
Turning to `c1csc(-c2nnc(-c3ccc(N4CCOCC4)cc3)o2)c1` [THK-383, 4-[4-(5-thiophen-2-yl-[1,3,4]oxadiazol-2-yl)-phenyl]-morpholine], in data set [2], the “Binding to (staining of) amyloid β protein in the brain section of an Alzheimer disease patient” value (from here on “Binding … of an Alzheimer disease patient”) is reported as “bound to the amyloid β protein” and the “Specificity to amyloid β” value is recorded as “high specificity to amyloid β”.
In the case of `Cc1ccc2c(c1)sc(-c1ccc(N(C)C)cc1)[n+]2C.[Cl-]` [Thioflavin T, reference compound], on Amyloid β protein 1-40 (Congo red 0.1 μM), the “Binding Percentage of Compound in the presence of 0.1 μM CR” value stood at 49.4%. In addition, the “Binding Percentage of Compound in the presence of 0.3 μM CR” value at Amyloid β protein 1-40 (Congo red 0.3 μM) came out at 22.3%. At Amyloid β protein 1-40 (Congo red 1 μM), the “Binding Percentage of Compound in the presence of 1 μM CR” value is recorded as 9.3%.
Take `CC1(C)c2ccccc2N2CCC(=O)NC21/C=C/c1ccc(N2CCOCC2)cc1` (stereo not shown) [THK-336]: in data set [1], the “Relative activity (mutagenicity)” value is on record as “minus”, the “Relative Activity in the presence of S9Mix” value was “minus” and the “Relative Activity in the absence of S9Mix” value is on record as “minus”.
As to `CN(C)c1ccc(-c2nnc(-c3sc4cc(Cl)ccc4c3Cl)o2)cc1` [THK-262, [4-[5-(3,6-dichloro-benzo[b]thiophen-2-yl)-[1,3,4]oxadiazol-2-yl]-phenyl]-dimethylamine], in data set [2], the “Binding … of an Alzheimer disease patient” value was “bound to the amyloid β protein” and the “Specificity to amyloid β” value is “high specificity to amyloid β”.
The corresponding values for `Cc1ccc2c(c1)C(C)(C)C1(/C=C/C=C/c3ccc(N(C)C)cc3)NC(=O)CCN21` (stereo not shown) [THK-565] are “bound to the amyloid β protein” and “high specificity to amyloid β”.
The corresponding values for `CN(C)c1ccc(/C=C\C=C2C(=O)c3ccccc3C2=O)cc1` [THK-248, 2-[3-(4-dimethylamino-phenyl)-allylidene]-indane-1,3-dione] are “bound to the amyloid β protein” and “high specificity to amyloid β”.
The corresponding values for `CN(C)c1ccc(/C=C/C23NC(=O)CN2c2ccc(Br)cc2C3(C)C)cc1` (stereo not shown) [THK-556, 7-bromo-9a-[2-(4-dimethyl-amino-phenyl)-vinyl]-9,9-dimethyl-9,9a-dihydro-1H-imidazo[1,2-a]indol-2-one] are “bound to the amyloid β protein” and “high specificity to amyloid β”.
In the case of `CN(C)c1ccc(/C=C/C23NC(=O)CCN2c2ccc(Br)cc2C3(C)C)cc1` (stereo not shown) [THK-558, 8-bromo-10a-[2-(4-dimethyl-amino-phenyl)-vinyl]-10,10-dimethyl 1-3,4,10,10a-tetrahydro-1H-pyrimido[1,2-a]indol-2-one], in data set [2], the “Binding … of an Alzheimer disease patient” value is recorded as “bound to the amyloid β protein” and the “Specificity to amyloid β” value is given as “high specificity to amyloid β”.
In the case of `O=C1Nc2ccc(Cl)cc2/C1=C/c1ccc(N2CCOCC2)cc1` [THK-276, 5-chloro-3-(4-morpholin-4-yl-benzylidene)-1,3-dihydroindol-2-one], in data set [2], the “Binding … of an Alzheimer disease patient” value was “bound to the amyloid β protein” and the “Specificity to amyloid β” value is “high specificity to amyloid β”.
In the case of `O=C1Nc2ccc(Cl)cc2/C1=C/c1ccc(N2CCOCC2)s1` [THK-308, 5-chloro-3-(5-morpholin-4-yl-thiophen-2-ylmethylene)-1,3-dihydroindol-2-one], in data set [2], the “Binding … of an Alzheimer disease patient” value was “bound to the amyloid β protein” and the “Specificity to amyloid β” value is “high specificity to amyloid β”.
On to `OCC(CF)Oc1ccc2nc(/C=C/c3cnc(N4CCSCC4)s3)oc2c1` (stereo not shown) [THK-767, (E)-6-[(1-fluoromethyl-2-hydroxy)ethoxy]-2-[2-(2-thiomorpholinothiazol-5-yl)ethenyl]benzoxazole], for which the activity at 10 µM at Amyloid β protein 1-40 (Congo red 0.1 μM, read-out: Binding Percentage of Compound in the presence of 0.1 μM CR) is 60%; on Amyloid β protein 1-40 (Congo red 0.3 μM, read-out: Binding Percentage of Compound in the presence of 0.3 μM CR), 29.9%; on Amyloid β protein 1-40 (Congo red 1 μM, read-out: Binding Percentage of Compound in the presence of 1 μM CR), 15.9%.
